Tests used:
Assay in all cases: luminescence titration
Conditions in all cases: Na+ 100 mM; 20 mM Tris-HCl, pH 7.5, 298 K; apparent
[1] = tested on: G2C3 (DNA, hairpin) GGCAGGCCCAGCTTTTTGCTGGGCCTGCC
[2] = tested on: A2T3 (DNA, hairpin) GGCGAATTTCGCTTTTTGCGAAATTCGCC
[3] = tested on: A3T3 (DNA, hairpin) GGCAAATTTCAGTTTTTCTGAAATTTGCC
[4] = tested on: A2T2 (DNA, hairpin) GGCGAATTCAGCTTTTTGCTGAATTCGCC

Row | SMILES | KD [1] | KD [2] | KD [3] | KD [4]
1 | N=C(N)c1ccc(NCc2ccnc(-c3cc(CNc4ccc(C(=N)N)cc4)ccn3)c2)cc1.[Ir+3].[c-]1ccccc1-c1ccccn1.[c-]1ccccc1-c1ccccn1 [Δ-4Ir] | 1.44 (0.09) μM | 0.49 (0.03) μM | 1.01 (0.12) μM | 0.27 (0.09) μM
2 | N=C(N)c1ccc(NCc2ccnc(-c3cc(CNc4ccc(C(=N)N)cc4)ccn3)c2)cc1.[Ir+3].[c-]1ccccc1-c1ccccn1.[c-]1ccccc1-c1ccccn1 [Λ-4Ir] | 0.70 (0.05) μM | 0.62 (0.04) μM | 0.47 (0.03) μM | 1.15 (0.13) μM
